Laboratory results taken from patent US20230293519A1, “INTEGRIN INHIBITORS AND USES THEREOF IN COMBINATION WITH OTHER AGENTS” (Pliant Therapeutics, Inc., priority 2021, published 2023).

What was measured:
lung Col1a1 expression = assay: Precision cut lung slices of mice under chronic bleomycin exposure (single vs dual integrin inhibition); assay type: cell-based, mouse; conditions: slices cultured 7 days
Experimental: Mice (C57BL/6) were administered 3 U/kg of bleomycin (Teva Pharmaceuticals; North Wales, PA) on Day 0 and 1 U/kg of bleomycin on days 14, 28, 42 and 56 via oropharyngeal aspiration while under anesthesia. At day 70, 14 days after the final bleomycin insult, precision cut lung slices were obtained. Following euthanization, 2% low gelling temp agarose was injected into the mouse lungs via the trachea. […] The lobes were then subjected to precision slicing to obtain samples for culture using a microtome (Compresstome VF-300-0Z, Precisionary; Greenville, NC). Individual slices were distributed in a multiwell culture plate and cultured for 7 days under control (DMSO) and test compound conditions. […]
During the culture period, slices in the control group were treated with DMSO and slices in the test group were treated with a DMSO solution of one of: the selective antibody αvβ6 inhibitor 3G9; the αvβ1-selective small molecule inhibitor; a combination of the selective antibody αvβ6 inhibitor 3G9 and the αvβ1-selective small molecule inhibitor; compound 5; and the small molecule ALK5 inhibitor. The selective αvβ1 and αvβ6 integrin inhibitors were analyzed at ≥ their respective IC90 concentrations for inhibition of TGF-beta activation. […] The small molecule ALK5 inhibitor was analyzed at 10x its reported IC50 value.

[1] = system: Type I Collagen gene Col1a1 expression; assay: Precision cut lung slices of mice under acute bleomycin exposure; assay type: cell-based, mouse; conditions: slices cultured 3 days; integrin inhibitors at IC50, pan-αv and ALK5 inhibitors at 10x IC50
Experimental: Mice (C57BL/6) were administered 3 U/kg of bleomycin (Teva Pharmaceuticals; North Wales, PA) on day 0 via oropharyngeal aspiration while under anesthesia. On day 14, precision cut lung slices were obtained. Following euthanization, 2% low gelling temp agarose was injected into the mouse lungs via the trachea. […] The lobes were then subjected to precision slicing to obtain samples for culture using a microtome (Compresstome VF-300-0Z, Precisionary; Greenville, NC). Individual slices were distributed in a multiwell culture plate and cultured for 3 days under control (DMSO) and test compound conditions.

pSMAD2:SMAD2 ratio = pSMAD2:SMAD2 ratio in BAL of healthy human subjects; assay type: in vivo; conditions: subjects with Cmax above 700 ng/mL; Day 7 vs baseline (Day -1)
Experimental: In order to evaluate the change of pSMAD2 as a biomarker of TGF-β activity following administration of an integrin inhibitor, and to determine a therapeutically effective dosage and an effective blood plasma Cmax of the integrin inhibitor, healthy subjects were administered compound 5, a dual selective αvβ6/avβ1-integrin inhibitor, and the corresponding Cmax levels and decrease in phosphorylation levels and were determined.
Healthy non-smoking adult males without history of lung disease were selected as subjects and were randomized into 4 cohorts. Broncoalevaolar lavage samples were obtained from all subjects 1 day prior to start of treatment. Cohorts 1 and 2 were administered 20 mg of a compound daily, wherein 3 subjects were administered the dual selective αvβ6/αvβ1-integrin inhibitor (compound 5) per every 1 subject receiving a placebo compound. Cohorts 3 and 4 were administered 40 mg of a compound daily, wherein 3 subjects were administered the dual selective αvβ6/αvβ1- integrin inhibitor (compound 5) per every 1 subject receiving a placebo compound. BAL samples and blood samples were taken from all subjects on Day -1 (baseline) and on Day 7 (end of treatment).

With `COCCN(CCCCc1ccc2c(n1)NCCC2)CC[C@H](Nc1ncnc2ccccc12)C(=O)O` [Compound 5, (S)-4-((2-methoxyethyl)(4-(5,6,7,8-tetrahydro-1,8-naphthyridin-2-yl)butyl)amino)-2-(quinazolin-4-ylamino)butanoic acid] the “lung Col1a1 expression vs DMSO control” value (lung Col1a1 expression) was “decreased lung Col1a1 expression substantially”, the “Type I Collagen gene Col1a1 expression vs DMSO control” value [1] was “decreased Type I Collagen gene Col1a1 expression substantially” and the “reduction in pSMAD2:SMAD2 ratio in BAL” value (pSMAD2:SMAD2 ratio) was at least 50%.
